Experimental data taken from patent publication USRE49050E1, “Traditional Chinese medicine composition, and preparation and application thereof” (Tasly Pharmaceutical Group Co., Ltd., priority 2013, dated 2022).

Legend:
Type in all cases: in vivo
[1] = system: ADP-induced platelet aggregation; test: Platelet aggregation rate trial in rabbits, ADP-induced; conditions: ADP 3 μg/ml; dose 60 mg/kg intragastric once a day for 7 days; n = 8
Method: (§1) The rabbits were randomly grouped into 4 groups: the model group was given with distilled water, the aspirin group ([…]), Extract A groups of low dose and high dose at 42 and 84 mg/kg (respectively 1 2 times of clinic equivalent dosage), intragastrically administrated, once a day for 7 consecutive days. The volume of medicine administrated was 1 ml/kg body weight. 60 min after intragastric administration on 7th day, the animals were anesthetized locally, blooded through carotid artery, anticoagulated with sodium citrate (3.8%) 1:9 and centrifugated at 1000 r/min for 10 min. Platelet-rich plasma (PRP) was taken and the remain centrifugated at 3000 r/min to take platelet-poor plasma (PPP. Aggregation was induced by ADP (final concentration 3 μg/ml), AA (final concentration 80 μg/ml) and collagen ([…]). […] platelet aggregation & coagulation factor analyzer was used to measure the maximum platelet aggregation rate and to calculate inhibition rate according to following formula. [formula] Results

[2] = system: AA-induced platelet aggregation; test: Platelet aggregation rate trial in rabbits, AA-induced; conditions: AA 80 μg/ml; dose 60 mg/kg intragastric once a day for 7 days; n = 8
Method: as §1

[3] = system: collagen-induced platelet aggregation; test: Platelet aggregation rate trial in rabbits, collagen-induced; conditions: dose 60 mg/kg intragastric once a day for 7 days, n = 8
Method: as §1

## CC(=O)Oc1ccccc1C(=O)O [Aspirin]
[1]
  Platelet aggregation rate: 18.96 ± 4.11 %
[2]
  Platelet aggregation rate: 6.13 ± 2.03 %
[3]
  Platelet aggregation rate: 6.23 ± 2.41 %
